In US20110245294A1, “METHODS OF IMPROVING QUALITY OF SLEEP” (THERAVIDA, INC., priority 2010, published 2011):

Assays:
[1] = system: healthy volunteers; details: some studies have suggested; cited from earlier work
[2] = system: patients being treated for OAB
Excerpt: Enrollment of subjects already taking this medication was used to enable the collection of steady-state baseline information and to minimize discontinuations during the 4-week treatment period. On three consecutive days, subjects were asked to complete paper diaries where the subject answered questions related to the degree of difficulty of sleep and responded by using a VAS. These questions and VAS have been validated and used in other clinical studies. Furthermore, each subject relinquished the completed diary at the end of each treatment period following a review by clinic staff.
The methods used to collect information for assessment of quality of sleep, subjects were asked specific questions and they rated their quality of sleep using a VAS. The mean of the values obtained on each of the three days was used as the sole value for the baseline or treatment value. The methods used to evaluate effect on quality of sleep of the combination and oxybutynin alone are widely used and considered standard.
The VAS is a validated scale utilized in clinical trials and registrational studies of many drugs. Patients were instructed on how to complete the diary over 3 consecutive days and perform VAS assessments for quality of sleep on the diary days. The ratings were from 0 to 100 on a 100-mm line, and the patient was asked to rate themself by marking the horizontal line. For instance, quality of sleep was quantified as 0=easy and 100=difficult.

| Structure (SMILES) | effect on sleep [1] | VAS quality of sleep response versus baseline or monotherapy, in words ([2]; 100-point mm scale, reduction from baseline) | Change in LSM from Baseline in Quality of Sleep ([2]; ITT population, N = 42, lower scores indicate improvement from baseline, P value 0.0073 between treatments) [mm] | Quality of Sleep Value (VAS), mean ([2]; mean over subjects, 0=easy, 100=difficult, 2 weeks treatment, baseline mean 37.6 mm) [mm] |
| --- | --- | --- | --- | --- |
| CCN(CC)CC#CCOC(=O)C(O)(c1ccccc1)C1CCCCC1 (centres unmarked) [Oxybutynin, oxybutynin] | adverse effect on the sleep | unchanged from baseline | 3.7 | 41.3 |
| O=C(O[C@H]1C[C@H]2CC[C@@H](C1)[N+]21CCCC1)C(O)(c1ccccc1)c1ccccc1 [trospium] | adverse effect on the sleep |  |  |  |
